We go through 2 compounds from patent US7018457B2, “Azo metal-complexed dyes, ink jet ink compositions and ink jet printing methods” (Polaroid Corporation, priority 2002, dated 2006).

Format in all cases: physicochemical
Data set [1] is described as follows: Ozone stability of dye coatings in an ozone chamber. The conditions noted are these: Epson paper; about 10 PPM ozone; 16 hours, 8 lamp cycles.
Data set [2] in a line: Light stability of dye coatings on receiver papers, Xenon arc at 10,000 ft. candles. The conditions noted are these: for % Density Loss (Y) after 5 Day Xe Arc, Epson / % Density Loss (Y) after 5 Day Xe Arc, Kodak / % Density Loss (Y) after 5 Day Xe Arc, Watercolor: 5 days. As to the method: (§1) Experiments were carried out with Kodak® Premium Glossy Paper (available from Eastman Kodak Company, Rochester, N.Y.), Epson Premium Glossy Photo Paper (available from Epson Corporation) and Somerset Radiant White watercolor paper (a 100% cotton fiber paper with little or no sizing).
(§2) The dye samples were prepared by initially making a concentrated ink jet fluid (Fluid A) with 35.2% 1,5-pentanediol, 24.8% 2-pyrollidinone, 20% trimethylolpropane and 20% water (by weight). Two parts by weight of Fluid A were diluted with eight parts of water to form Fluid B consisting of approximately 7% 1,5-pentanediol, 5% 2-pyrollidinone, 4% trimethylolpropane and 84% water.
(§3) The test fluids were prepared by dissolving approximately 20 mg of dye with heating and vortex stirring into 1 gram of Fluid B. Once a clear fluid was obtained, the fluid was coated on the ink jet receiver material with a #4 Meyer rod. The coating was dried and the reflection density was measured. When the density was not in the range of from 0.7 to 1.3 the test fluid was diluted with additional Fluid B and the coatings repeated until the reflection density was in the range specified above.
(§4) Samples of the dyes were applied to the papers in a thin film as described above, air dried and the sample exposed in a Xenon arc at 10,000 ft. candles and also to cool white fluorescent bulbs with an irradiance of 2,500 ft. candles.
This example illustrates the light stability of the dyes of formulas V–XV in xenon arc testing. The tests were carried out as described in Example II.
The ozone tests were conducted in an ozone chamber constructed from a large Pyrex jar having a volume of approximately 1.2 ft.^3 and a low temperature mercury-argon lamp (Oriel 6035). Ozone was produced in situ by the direct photolysis of oxygen in the ambient air within the chamber. A fan in the chamber ensured that all the samples were uniformly exposed to the ozone. The lamp power supply was energized under the control of a timer such that the lamp was on for 15 minutes every two hours thereby producing an average ozone concentration of about 10 PPM (24 mg/m^3). The test was carried out for 16 hours, or 8 lamp cycles. The ozone tests were carried out on Epson paper. The light stability experiments were carried out for 5 days at […] on Kodak Glossy Paper.

The nature of data set [3]: Light stability of dye coatings on receiver papers, cool white fluorescent bulbs at 2,500 ft. candles. The conditions noted are these: cool white fluorescent 2,500 ft. candles. As to the method: as §1, §2, §3, §4

Regarding `Cc1nn(-c2ccc(S(=O)(=O)[O-])cc2)c(O)c1N=Nc1ccc(S(=O)(=O)[O-])cc1C(=O)[O-].[Na+].[Na+].[Na+]` [Control, 2-[5-hydroxy-3-methyl-1-(4-sulfophenyl)-1H-pyrazol-4-ylazo]-5-sulfobenzoic acid sodium salt], the “% Loss in Density, Ozone” value in data set [1] is listed as −29%. In addition, the “% Density Loss (Y) after 5 Day Xe Arc, Epson” value in data set [2] (Epson Premium Glossy Photo Paper, Xenon arc 10,000 ft. candles) is −7%. Moreover, the “% Loss in Density, Light” value in data set [2] (Kodak Glossy Paper, 5 days at 10,00 ft. candles) was −90%. Further, the “% Density Loss (Y) after 5 Day Xe Arc, Kodak” value in data set [2] (Kodak Premium Glossy Paper, Xenon arc 10,000 ft. candles) is listed as −85%. Also, in data set [2] (Somerset Radiant White watercolor paper, Xenon arc 10,000 ft. candles), the “% Density Loss (Y) after 5 Day Xe Arc, Watercolor” value was −23%. Further, the “% Density Loss after 3 weeks under fluorescent light, Epson” value in data set [3] (Epson paper) is 1%. The “% Density Loss after 3 weeks under fluorescent light, Kodak” value in data set [3] (Kodak paper) was −51%. Also, the “% Density Loss after 3 weeks under fluorescent light, Watercolor” value in data set [3] (watercolor paper) is −7%.

Regarding `Cc1nn(-c2ccc(S(=O)(=O)[O-])cc2)c2c1N=Nc1ccc(S(=O)(=O)[O-])cc1C(=O)[O][Co][O]2.O.[Na+].[Na+]` [VI], the “% Density Loss (Y) after 5 Day Xe Arc, Epson” value in data set [2] (Table IV, Epson paper, Xenon arc as in Example II) was found to be 17%. In data set [2] (Table IV, Kodak paper, Xenon arc as in Example II), the “% Density Loss (Y) after 5 Day Xe Arc, Kodak” value is on record as −52%. Besides, in data set [2] (Table IV, watercolor paper, Xenon arc as in Example II), the “% Density Loss (Y) after 5 Day Xe Arc, Watercolor” value is recorded as −19%.
